Laboratory results taken from ChEMBL document CHEMBL1143993, “Synthesis and structure-activity relationships of a series of substituted 2-(1H-furo[2,3-g]indazol-1-yl)ethylamine derivatives as 5-HT2C receptor agonists” (Bioorg Med Chem, 2008).

Experiments:
[1] = biological target: T1, 5-hydroxytryptamine receptor 2A (Homo sapiens, UniProt P28223); experiment: Displacement of [3H]5-HT from human 5HT2A receptor expressed in CHO cells; format: cell-based
[2] = biological target: Serotonin 2 receptors; 5-HT2a & 5-HT2c (Homo sapiens) (UniProt P28223+P28335); experiment: Selectivity for human 5HT2A to human 5HT2C
Sequence of Serotonin 2 receptors; 5-HT2a & 5-HT2c (Homo sapiens) (P28223 whole entry, looked up, one chain of several): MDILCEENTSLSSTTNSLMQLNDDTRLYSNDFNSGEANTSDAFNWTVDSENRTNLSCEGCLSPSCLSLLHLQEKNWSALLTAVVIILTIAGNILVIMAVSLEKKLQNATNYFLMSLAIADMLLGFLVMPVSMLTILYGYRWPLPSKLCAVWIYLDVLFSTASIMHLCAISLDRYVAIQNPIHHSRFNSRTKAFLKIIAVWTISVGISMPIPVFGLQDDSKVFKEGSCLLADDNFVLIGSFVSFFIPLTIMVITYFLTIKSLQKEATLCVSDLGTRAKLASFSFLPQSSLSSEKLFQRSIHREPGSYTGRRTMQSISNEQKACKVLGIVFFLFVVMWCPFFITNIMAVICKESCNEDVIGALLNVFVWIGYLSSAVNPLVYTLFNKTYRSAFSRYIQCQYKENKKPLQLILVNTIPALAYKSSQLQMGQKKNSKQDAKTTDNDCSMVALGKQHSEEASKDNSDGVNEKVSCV

[3] = biological target: T2, 5-hydroxytryptamine receptor 2C (Homo sapiens, UniProt P28335); experiment: Displacement of [3H]5-HT from human 5HT2C receptor expressed in CHO cells; format: cell-based
T2 sequence (P28335 whole entry): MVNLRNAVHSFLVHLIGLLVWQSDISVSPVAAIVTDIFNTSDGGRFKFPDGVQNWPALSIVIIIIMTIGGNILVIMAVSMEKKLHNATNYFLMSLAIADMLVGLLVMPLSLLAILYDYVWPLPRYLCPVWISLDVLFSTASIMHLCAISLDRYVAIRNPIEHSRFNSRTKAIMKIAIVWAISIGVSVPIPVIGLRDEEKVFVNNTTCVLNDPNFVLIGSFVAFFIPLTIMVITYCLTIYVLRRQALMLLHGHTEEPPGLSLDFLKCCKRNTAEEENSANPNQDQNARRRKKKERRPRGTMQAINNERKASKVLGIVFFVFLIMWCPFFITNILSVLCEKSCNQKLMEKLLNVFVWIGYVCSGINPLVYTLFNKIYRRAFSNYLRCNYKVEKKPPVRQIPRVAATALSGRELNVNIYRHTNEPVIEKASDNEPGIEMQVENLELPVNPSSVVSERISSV

Rattus norvegicus [4] = experiment: Induction of penile erection in sc dosed rat; format: functional; details: read-out: MED
[5] = biological target: T3, 5-hydroxytryptamine receptor 2C (Homo sapiens) (UniProt P28335); experiment: Intrinsic activity at human cloned 5HT2C receptor expressed in CHO cells assessed as maximal stimulation of 10 uM 5HT-induced myo-[3H]inositol hydrolysis; format: functional, cell-based
T3 sequence (whole entry): T2 sequence (P28335 whole entry)

[6] = biological target: T1, 5-hydroxytryptamine receptor 2A; experiment: Intrinsic activity at human cloned 5HT2A receptor expressed in CHO cells assessed as maximal stimulation of 10 uM 5HT-induced myo-[3H]inositol hydrolysis; format: functional, cell-based
[7] = biological target: T4, 5-hydroxytryptamine receptor 2B (Homo sapiens, UniProt P41595); experiment: Intrinsic activity at human cloned 5HT2B receptor expressed in HEK293-EBNA cells assessed as maximal stimulation of 10 uM 5HT-induced myo-[3H]inositol hydrolysis; format: functional, cell-based
T4 sequence (P41595 whole entry): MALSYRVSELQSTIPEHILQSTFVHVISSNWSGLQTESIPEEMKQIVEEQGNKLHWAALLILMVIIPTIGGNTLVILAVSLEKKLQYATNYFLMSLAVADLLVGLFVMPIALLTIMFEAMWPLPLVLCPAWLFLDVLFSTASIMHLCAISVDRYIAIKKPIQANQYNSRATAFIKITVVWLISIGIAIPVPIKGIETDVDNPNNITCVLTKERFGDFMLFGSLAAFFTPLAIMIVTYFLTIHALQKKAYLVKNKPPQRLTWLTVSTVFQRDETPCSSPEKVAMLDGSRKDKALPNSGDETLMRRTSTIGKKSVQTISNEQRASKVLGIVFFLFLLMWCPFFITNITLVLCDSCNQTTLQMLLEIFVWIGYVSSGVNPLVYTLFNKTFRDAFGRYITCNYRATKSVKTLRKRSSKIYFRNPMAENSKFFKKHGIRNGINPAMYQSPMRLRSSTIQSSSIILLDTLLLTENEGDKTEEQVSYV

Homo sapiens = species: Homo sapiens; experiment: Selectivity ratio of EC50 for human cloned 5HT2B receptor over EC50 for human cloned 5HT2C receptor
[8] = biological target: T4, 5-hydroxytryptamine receptor 2B
Description: Agonist activity at human cloned 5HT2B receptor expressed in HEK293-EBNA cells assessed as myo-[3H]inositol hydrolysis

[9] = biological target: T2, 5-hydroxytryptamine receptor 2C; experiment: Agonist activity at human cloned 5HT2C receptor expressed in CHO cells assessed as myo-[3H]inositol hydrolysis; format: functional, cell-based
[10] = biological target: T1, 5-hydroxytryptamine receptor 2A; experiment: Agonist activity at human cloned 5HT2A receptor expressed in CHO cells assessed as myo-[3H]inositol hydrolysis; format: functional, cell-based
Rattus norvegicus [11] = experiment: Induction of penile erection in po dosed rat; format: functional; details: read-out: MED

T1 sequence (P28223 whole entry): as the sequence (P28223 whole entry, looked up, one chain of several) above

SMILES | Ki [1] | Ratio Ki [2] | Ki [3] | further results
CCc1nn(C[C@H](C)N)c2c1ccc1occc12 | 11 nM | 4 | 2.5 nM | 
C[C@H](N)Cn1ccc2cc(F)c(Cl)cc21 | 39 nM | 2 | 26 nM | minimal effective dose (Rattus norvegicus [4]): 0.3 mg/kg; Emax [5]: 88%; Emax [6]: 91%; Emax [7]: 130%; Ratio EC50 (Homo sapiens): 0.05; EC50 [8]: 2.4 nM; EC50 [9]: 52 nM; EC50 [10]: 400 nM
CCc1cc2c(ccc3cnn(C[C@H](C)N)c32)o1 | 13 nM | 15 | 0.89 nM | minimal effective dose (Rattus norvegicus [4]): 0.03 mg/kg; Emax [5]: 76%; Emax [6]: 97%; Emax [7]: 110%; Ratio EC50 (Homo sapiens): 3.2; EC50 [8]: 3.2 nM; EC50 [9]: 1 nM; minimal effective dose (Rattus norvegicus [11]): 0.3 mg/kg; EC50 [10]: 93 nM
C[C@H](N)Cn1ncc2ccc(F)cc21 | 82 nM | 3 | 32 nM | 
C[C@H](N)Cn1ncc2ccc3sccc3c21 | 6.7 nM | 5 | 1.4 nM | 
CCc1cc2c(ccc3c(CC)nn(C[C@H](C)N)c32)o1 | 51 nM | 19 | 2.7 nM | 
C[C@H](N)Cn1ncc2cc(Cl)c(Cl)cc21 | 11 nM | 1 | 7.5 nM | 
C[C@H](N)Cn1ncc2ccc3ocnc3c21 | 47 nM | 1 | 59 nM | 
CCc1cc2c(ccc3c(C)nn(C[C@H](C)N)c32)o1 | 46 nM | 9 | 5 nM | 
COc1ccc2cnn(C[C@H](C)N)c2c1Cl | 1200 nM | 9 | 140 nM | 
COc1nn(C[C@H](C)N)c2c1ccc1occc12 |  | 17 | 0.51 nM | minimal effective dose (Rattus norvegicus [4]): 0.1 mg/kg
C[C@H](N)Cn1ncc2ccc(Cl)c(Cl)c21 | 9.1 nM | 2 | 4 nM | 
C[C@H](N)Cn1ncc2ccc3occc3c21 | 0.78 nM | 4 | 0.2 nM | 
COc1ccc2cnn(C[C@H](C)N)c2c1 | 37 nM | 2 | 16 nM | 
Cc1cc2c(ccc3cnn(C[C@H](C)N)c32)o1 | 0.78 nM | 4 | 0.2 nM | 
CCCc1nn(C[C@H](C)N)c2c1ccc1occc12 | 64 nM | 3 | 25 nM | 
CC(C)c1cc2c(ccc3cnn(C[C@H](C)N)c32)o1 | 87 nM | 4 | 20 nM | 
CCc1cc2c(ccc3c(OC)nn(C[C@H](C)N)c32)o1 | 38 nM | 3 | 12 nM | 
C[C@H](N)Cn1ncc2cc(F)ccc21 | 89 nM | 2 | 43 nM | 
Cc1nn(C[C@H](C)N)c2c1ccc1occc12 | 17 nM | 1 | 13 nM | 
